Here are results for 23 compounds from US20260315452A1, “PROTEASE INHIBITORS AND USES THEREOF” (priority 2023, published 2026).

Bounds are passed on as bounds.

This test addresses SARS-CoV-2 3CLpro (Severe acute respiratory syndrome coronavirus 2, UniProt P0DTD1). Kind of test: biochemical. The note with it: inhibition of SARS-CoV-2 3CLpro; 15 nM 3CLpro, 25 μM fluorogenic substrate, 37° C.; read-out: Inhibitory Activity (IC50).
Consider `NC(=O)c1cc(Br)cc([N+](=O)[O-])c1N[C@H]1CN(C(=O)c2cncc3ccccc23)CCC1(F)F` [Compound 49, (S)-5-bromo-2-((4,4-difluoro-1-(isoquinoline-4-carbonyl)piperidin-3-yl)amino)-3-nitrobenzamide], for which the IC50 is less than 100 nM.

As to `O=C(NC1CC(F)(F)C1)c1cc(Br)cc([N+](=O)[O-])c1N1CCC2(CCN(C(=O)c3cncc(C(F)(F)F)c3)C2)C1` (centres unmarked) [Compound 22, 5-bromo-N-(3,3-difluorocyclobutyl)-3-nitro-2-(7-(5-(trifluoromethyl)nicotinoyl)-2,7-diazaspiro[4.4]nonan-2-yl)benzamide], the IC50 is 1000 to 10000 nM.

On to `CNC(=O)c1cc(Br)cc([N+](=O)[O-])c1N1CCc2[nH]nc(-c3cncc4ccccc34)c2C1` [Compound 69, 5-bromo-2-(3-(isoquinolin-4-yl)-1,4,6,7-tetrahydro-5H-pyrazolo[4,3-c]pyridin-5-yl)-N-methyl-3-nitrobenzamide], for which the 50% inhibitory concentration (IC50) lay in the range of 1000 to 10000 nM.

For the compound `CNC(=O)c1cc(Br)cc([N+](=O)[O-])c1O[C@H]1CN(C(=O)c2cncc3ccccc23)CCC1(F)F` [Compound 180, (S)-5-bromo-2-((4,4-difluoro-1-(isoquinoline-4-carbonyl)piperidin-3-yl)oxy)-N-methyl-3-nitrobenzamide], the IC50 was not below 10000 nM.

Turning to `CNC(=O)c1cc(Br)cc([N+](=O)[O-])c1N1CCC2(CN(C(=O)c3cncc4ccccc34)C2)C1` [Compound 10, 5-bromo-2-(2-(isoquinoline-4-carbonyl)-2,6-diazaspiro[3, 4]octan-6-yl)-N-methyl-3-nitrobenzamide], the half-inhibitory concentration (IC50) was not below 10000 nM.

Consider `O=C(NC1CC(F)(F)C1)c1cc(Br)cc([N+](=O)[O-])c1N[C@H]1CN(C(=O)c2cncc3ccccc23)CC(F)(F)C1` [Compound 134, (R)-5-bromo-2-((5,5-difluoro-1-(isoquinoline-4-carbonyl)piperidin-3-yl)amino)-N-(3,3-difluorocyclobutyl)-3-nitrobenzamide], for which the IC50 was 100 to 1000 nM.

Turning to `O=C(O)c1cc(Br)cc([N+](=O)[O-])c1N[C@H]1CN(C(=O)c2cncc3ccccc23)CCC1(F)F` [Compound 153, (S)-5-bromo-2-((4,4-difluoro-1-(isoquinoline-4-carbonyl)piperidin-3-yl)amino)-3-nitrobenzoic acid], the IC50 fell in the range of 100 to 1000 nM.

Turning to `CNC(=O)c1cc(Cl)cc([N+](=O)[O-])c1NC(C(C)C)C1CN(C(=O)c2cncc3ccccc23)C1` (centres unmarked) [Compound 130, 5-chloro-2-((1-(1-(isoquinoline-4-carbonyl)azetidin-3-yl)-2-methylpropyl)amino)-N-methyl-3-nitrobenzamide acid], the IC50 is 100 to 1000 nM.

`Cc1c(Cl)cncc1C(=O)N1CCC2(CCN(c3c(C(=O)NC4CC(F)(F)C4)cc(Br)cc3[N+](=O)[O-])C2)C1` (centres unmarked) [Compound 24, 5-bromo-2-(7-(5-chloro-4-methylnicotinoyl)-2,7-diazaspiro[4.4]nonan-2-yl)-N-(3,3-difluorocyclobutyl)-3-nitrobenzamide]: the IC50 was 1000 to 10000 nM.

Take `CNC(=O)c1cc(Br)cc([N+](=O)[O-])c1N[C@H]1CN(C(=O)c2cncc3ccccc23)CC[C@@H]1F` [Compound 87, 5-bromo-2-(((3S, 4S)-4-fluoro-1-(isoquinoline-4-carbonyl)piperidin-3-yl)amino)-N-methyl-3-nitrobenzamide]: the half-maximal inhibitory concentration (IC50) is less than 100 nM.

With `CNC(=O)c1cc(Br)cc([N+](=O)[O-])c1N[C@H]1CN(C(=O)C2CC(=O)Nc3ccccc32)CCC1(F)F` (some centres unmarked) [Compound 104], the IC50 is less than 100 nM.

`CNC(=O)c1cc(Br)cc([N+](=O)[O-])c1N[C@H]1CN(C(=O)c2cnc3ccccn23)CCC1(F)F` [Compound 101, (S)-5-bromo-2-((4,4-difluoro-1-(imidazo[1,2-a]pyridine-3-carbonyl)piperidin-3-yl)amino)-N-methyl-3-nitrobenzamide]: the half-maximal inhibitory concentration (IC50) is less than 100 nM.

As for `O=C(c1cc(Br)cc([N+](=O)[O-])c1N[C@H]1CN(C(=O)c2cncc3ccccc23)CC1(F)F)N1CC(F)(F)C1` [Compound 162, (S)-(5-bromo-2-((4,4-difluoro-1-(isoquinoline-4-carbonyl)pyrrolidin-3-yl)amino)-3-nitrophenyl)(3,3-difluoroazetidin-1-yl)methanone], the concentration for half-maximal inhibition (IC50) is less than 100 nM.

Consider `CNC(=O)c1cc(Br)cc([N+](=O)[O-])c1N[C@H]1CN(C(=O)c2cncc3cccnc23)CC[C@@H]1F` [Compound 108, 5-bromo-2-(((3S, 4S)-4-fluoro-1-(1,6-naphthyridine-8-carbonyl)piperidin-3-yl)amino)-N-methyl-3-nitrobenzamide], for which the 50% inhibitory concentration (IC50) was less than 100 nM.

With `CNC(=O)c1cc(Cl)cc([N+](=O)[O-])c1N[C@H]1CN(C(=O)c2cncc3ccncc23)CC[C@@H]1F` [Compound 171, 5-chloro-2-(((3S, 4S)-4-fluoro-1-(2,6-naphthyridine-4 - carbonyl)piperidin-3-yl)amino)-N-methyl-3-nitrobenzamide], the half-inhibitory concentration (IC50) was less than 100 nM.

As for `CNC(=O)c1cc(Br)cc([N+](=O)[O-])c1N[C@H]1CN(C(=O)c2cncc3ccccc23)C[C@@H]1C` [Compound 50, 5-bromo-2-[[(3R, 4S)-1-(isoquinoline-4-carbonyl)-4-methyl-pyrrolidin-3-yl]amino]-N-methyl-3-nitro-benzamide], the IC50 is less than 100 nM.

`O=C(N[C@@H]1CCNC1)c1cc(Br)cc([N+](=O)[O-])c1N[C@H]1CN(C(=O)c2cncc3ccccc23)CC1(F)F` [Compound 150]: the 50% inhibitory concentration (IC50) is less than 100 nM.

`CNC(=O)c1cc(Cl)cc([N+](=O)[O-])c1N[C@H]1CN(C(=O)c2cncc3cccc(O)c23)CCC1(F)F` [Compound 174, (S)-5-chloro-2-((4,4-difluoro-1-(5-hydroxyisoquinoline-4-carbonyl)piperidin-3-yl)amino)-N-methyl-3-nitrobenzamide]: the half-inhibitory concentration (IC50) was less than 100 nM.

As to `CNC(=O)c1cc(Br)cc([N+](=O)[O-])c1O[C@@H]1CCCC[C@@H]1NC(=O)c1cncc2ccccc12` [Compound 102, N-[(1S,2R)-2-[4-bromo-2-(methylcarbamoyl)-6-nitro-phenoxy]cyclohexyl]isoquinoline-4-carboxamide], the concentration for half-maximal inhibition (IC50) was less than 100 nM.

In the case of `O=C(NC1CC(F)(F)C1)c1cc(Br)cc([N+](=O)[O-])c1N[C@@H]1CCCC[C@@H]1NC(=O)c1cncc2ccccc12` [Compound 56, N-((1S, 2R)-2-((4-bromo-2-((3,3-difluorocyclobutyl)carbamoyl)-6-nitrophenyl)amino)cyclohexyl)isoquinoline-4-carboxamide], the IC50 is less than 100 nM.

Consider `O=C(N[C@H]1CCOC1)c1cc(Br)cc(C(F)(F)F)c1N[C@H]1CN(C(=O)c2cncc3ccccc23)CCC1(F)F` [Compound 164, 5-bromo-2-(((S)-4,4-difluoro-1-(isoquinoline-4-carbonyl)piperidin-3-yl)amino)-N-((S)-tetrahydrofuran-3-yl)-3-(trifluoromethyl)benzamide], for which the IC50 is less than 100 nM.

`CNC(=O)c1cc(Br)cc([N+](=O)[O-])c1N[C@@H]1CCCC[C@@H]1NC(=O)c1cncnc1` [Compound 2, N-((1S, 2R)-2-((4-bromo-2-(methylcarbamoyl)-6-nitrophenyl)amino)cyclohexyl) pyrimidine-5-carboxamide]: the IC50 is not below 10000 nM.

As to `CNC(=O)c1cc(Br)cc([N+](=O)[O-])c1N1CCC2(CCN(C(=O)c3cncnc3)C2)C1` (centres unmarked) [Compound 21], the half-inhibitory concentration (IC50) was not below 10000 nM.
